Molecular target: T1, rat androgen receptor (Rattus norvegicus, UniProt P15207)
T1 construct: The cytosol fraction obtained in the step (1) was adjusted to a protein concentration of 1 mg/ml and used as a rat androgen receptor solution; from tissue; host or cells: rat ventral prostate gland cytosol fraction (male Wistar rats, castrated)
T1 sequence (P15207 1-902): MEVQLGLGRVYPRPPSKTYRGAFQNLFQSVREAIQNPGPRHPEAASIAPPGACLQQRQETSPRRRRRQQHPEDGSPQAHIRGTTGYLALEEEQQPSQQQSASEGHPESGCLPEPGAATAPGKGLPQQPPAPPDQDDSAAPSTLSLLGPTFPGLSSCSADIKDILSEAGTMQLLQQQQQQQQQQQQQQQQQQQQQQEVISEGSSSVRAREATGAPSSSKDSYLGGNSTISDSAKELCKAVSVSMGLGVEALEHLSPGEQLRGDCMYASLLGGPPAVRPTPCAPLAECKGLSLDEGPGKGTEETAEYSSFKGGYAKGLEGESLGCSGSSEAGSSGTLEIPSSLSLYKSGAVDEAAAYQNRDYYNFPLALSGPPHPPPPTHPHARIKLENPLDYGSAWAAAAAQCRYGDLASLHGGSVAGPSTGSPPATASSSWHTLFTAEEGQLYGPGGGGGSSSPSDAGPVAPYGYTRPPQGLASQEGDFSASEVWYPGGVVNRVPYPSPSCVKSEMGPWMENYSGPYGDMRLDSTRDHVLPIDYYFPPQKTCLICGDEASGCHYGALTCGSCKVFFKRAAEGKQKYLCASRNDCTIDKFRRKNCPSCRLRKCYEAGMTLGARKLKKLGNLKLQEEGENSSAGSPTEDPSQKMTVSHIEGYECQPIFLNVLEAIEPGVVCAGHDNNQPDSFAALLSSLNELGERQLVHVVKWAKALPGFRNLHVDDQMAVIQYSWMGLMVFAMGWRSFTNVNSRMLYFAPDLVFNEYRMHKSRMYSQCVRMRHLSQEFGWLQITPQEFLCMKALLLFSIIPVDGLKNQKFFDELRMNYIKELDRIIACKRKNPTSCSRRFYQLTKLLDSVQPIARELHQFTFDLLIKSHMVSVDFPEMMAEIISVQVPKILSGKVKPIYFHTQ
Assay: biochemical
Conditions: 3H-mibolerone 1 nM, rat prostate cytosol; Ki calculated from IC50 by Cheng and Prusoff; read-out: Binding activity for rat androgen receptor (Ki = nM)

Row | Structure (SMILES) | Ki [nM]
1 | CNC(=O)c1cc(NC(=O)N2C[C@H](C)N(c3ccc(C#N)c(C(F)(F)F)c3)C[C@H]2C)ccn1 [Example 13-1, (2R,5S)-4-(4-Cyano-3-trifluoromethylphenyl)-2,5-dimethyl-N-(2-methylcarbamoyl-4-pyridyl)piperazine-1-carboxamide] | 1.91
2 | C[C@@H]1CN(c2ccc(C#N)c(C(F)(F)F)c2)[C@@H](C)CN1C(=O)Nc1ccc(C#N)nc1 [Example 18-7, (2R,5S)-N-(6-Cyano-3-pyridyl)-4-(4-cyano-3-trifluoromethylphenyl)-2,5-dimethylpiperazine-1-carboxamide] | 6.66
3 | C[C@@H]1CN(c2ccc(C#N)c(C(F)(F)F)c2)[C@@H](C)CN1C(=O)Nc1ccnc(N)n1 [Example 21, (2R,5S)-N-(2-Amino-pyrimidin-4-yl)-4-(4-cyano-3-trifluoromethylphenyl)-2,5-dimethylpiperazine-1-carboxamide] | 1.81
4 | C[C@@H]1CN(c2ccc(C#N)c(C(F)(F)F)c2)[C@@H](C)CN1C(=O)Nc1ccnc(F)c1 [Example 18-8, (2R,5S)-4-(4-Cyano-3-trifluoromethylphenyl)-N-(2-fluoro-4-pyridyl)-2,5-dimethylpiperazine-1-carboxamide] | 15.6
5 | C[C@@H]1CN(c2ccc(C#N)c(C(F)(F)F)c2)[C@@H](C)CN1C(=O)Nc1ccnc(Br)c1 [Example 6-1, (2R,5S)-N-(2-Bromo-4-pyridyl)-4-(4-cyano-3-trifluoromethylphenyl)-2,5-dimethylpiperazine-1-carboxamide] | 7.56
6 | COc1ccc(NC(=O)N2C[C@H](C)N(c3ccc(C#N)c(C(F)(F)F)c3)C[C@H]2C)cn1 [Example 6-13, (2R,5S)-4-(4-Cyano-3-trifluoromethylphenyl)-N-(6-methoxy-3-pyridyl)-2,5-dimethylpiperazine-1-carboxamide] | 3.58

Test system: not given
Assay: not given
Conditions: not given

Row | melting point [°C] | Structure (SMILES)
7 | 191 to 193 | CC(=O)Nc1nccc(NC(=O)N2C[C@@H](C)N(c3ccc(C#N)c(C(F)(F)F)c3)C[C@@H]2C)n1 (racemic)
8 | 208 to 211 | C[C@@H]1CN(C(=O)Nc2ccnc(N)c2)[C@@H](C)CN1c1ccc(C#N)c(C(F)(F)F)c1 (racemic)
9 | 163 to 165 | C[C@@H]1CN(c2ccc(C#N)c(C(F)(F)F)c2)[C@@H](C)CN1C(=O)Nc1ccc(F)nc1
10 | 200 to 203 | C[C@@H]1CN(C(=O)Nc2ccc(F)cc2)[C@@H](C)CN1c1ccc(C#N)c(C(F)(F)F)c1 (relative stereo)
11 | 152.5 to 153.5 | C[C@@H]1CN(C(=O)NC(C)(C)c2ccccc2)[C@@H](C)CN1c1ccc(C#N)c(C(F)(F)F)c1 (relative stereo)

Continued, compound first:

Row | Structure (SMILES) | melting point [°C]
12 | CC1(C)CN(c2ccc(C#N)c(C(F)(F)F)c2)CN1C(=O)Nc1ccc(F)cc1 | 199 to 200
13 | C[C@@H]1CN(c2ccc(C#N)c(C(F)(F)F)c2)[C@@H](C)CN1C(=O)Nc1ccc(C#N)nc1 [Example 18-7, (2R,5S)-N-(6-Cyano-3-pyridyl)-4-(4-cyano-3-trifluoromethylphenyl)-2,5-dimethylpiperazine-1-carboxamide] | 220 to 222
14 | C[C@@H]1CN(c2ccc(C#N)c(C(F)(F)F)c2)[C@@H](C)CN1C(=O)N1CC[S+]([O-])CC1 (relative stereo) | 173 to 175
15 | COc1ccc(NC(=O)N2C[C@H](C)N(c3ccc(C#N)c(C(F)(F)F)c3)C[C@H]2C)cn1 [Example 6-13, (2R,5S)-4-(4-Cyano-3-trifluoromethylphenyl)-N-(6-methoxy-3-pyridyl)-2,5-dimethylpiperazine-1-carboxamide] | 184 to 185
